Laboratory results as given in patent publication CN110590914A, “一种抑制和消除幽门螺杆菌生物膜生成的蜂蜜和多肽组合物” (Anhui University of Science and Technology, priority 2019, dated 2019).
Ends that are not written are not given here.

System: 幽门螺杆菌SS1菌株
Test: Inhibition of Helicobacter pylori biofilm formation (crystal violet staining, A595)
Type: cell-based
Conditions: peptide 5, 10, 20, 40, 80μg/mL (Fig. 1)

Sequence: KRIVQRIKDIKP [实施例4]
- Concentration dependence of inhibition of biofilm formation: 随着多肽的浓度增大，对生物膜生成的抑制率不断增加
